{
  "source": "patent US20250092353A1",
  "about": "“COMMENSAL FUNGUS AND USES THEREOF” (YEDA RESEARCH AND DEVELOPMENT CO. LTD., priority 2022, published 2025)",
  "key": {"[1]": {"system": "C2BBe1 cells", "assay": "Epithelial cell co-culture cytotoxicity (LDH assay)", "format": "cell-based", "method": "Quantification of cytotoxicity (LDH assay). Differentiated C2BBe1 cells in 96-well plates were infected for a defined time period with 10^4 C. albicans, S. cerevisiae and K. weizmannii. cells/well. After coincubation, epithelial damage was quantified by measuring LDH release using a cytotoxicity detection kit (Roche) according to the manufacturer's instructions."}, "[2]": {"system": "C. albicans", "assay": "Candidiasis in immunosuppressed C. albicans-colonized mice given Kazachstania-supplemented drinking water", "format": "in vivo", "method": "Stably fungal-colonized mice were 5×s.c injected with 225 mg kg-1 with cortisone 21-acetate, following the scheme of injection every other day as described previously (Solis and Filler, 2012). Mice were monitored for weight loss. Following sacrifice, organs and feces were collected for histological examination, flow cytometry and fungal cultivations). If the weight dropped […], mice were sacrificed according to IACUC protocol.\nFor enumerating the number of recoverable C. albicans and K. weizmannii colony forming units, individual fecal pellets or each tissue from mice was sterilely dissected, weighed, and homogenized in sterile DDW. Serial dilutions on the organ homogenate were spread onto YPD media plates and the number of individual colonies enumerated after incubation at 37° C. for 24 hours.\nMice were euthanized and intestines, kidneys and tongue were excised and fixed overnight in 4% paraformaldehyde at 4° C. Paraffin embedding and sectioning was performed by the institutional histology unit. For immunohistochemistry of gut samples, slides were deparaffinized by 2 washes of Xylene followed by 100%, 96%, 70% EtOH and three washes with PBS. Slides were incubated for 30 minutes in 1% hydrogen peroxide in PBS at room temperature in the dark. After washing three times in PBS, slides were boiled for 10 minutes in Citric acid buffer pH 6.0 (10 mM citric acid and 0.05% Tween-20 in DDW), then washed with PBS three times. Next, slides were blocked in BP buffer (0.3% Triton X-100, 2% horse serum and 1% bovine serum albumin in PBS) for 1 h, then incubated overnight at 4° C. with a 1:200 dilution of the primary antibody (anti-Candida) in BP buffer. […] For histopathology of typical tongue or kidney fungal lesions in the mouse model of immunosuppression, paraffin sections were stained with periodic acid-Schiff (PAS) or H&E and slides were captured using a Panoramic SCAN II (3DHISTECH) and analyzed using CaseViewer software (3DHISTECH)."}, "[3]": {"system": "serum IgA and IgG", "assay": "In vitro serum antibody binding assay (sera of colonized mice)", "format": "in vivo", "conditions": "single-colonized animals", "method": "Blood was collected from mice at rested at RT for 1 hour, followed by centrifugation 2,000 g 10 min. Serum supernatant was collected and froze at −80° C. until use. Cultured fungi were normalized to OD600=1 in PBS supplemented with 1% bovine serum albumin and 0.01% sodium azide (PBA solution). Cultured fungi were incubated with 20× diluted mouse serum on ice for 45 minutes, then washed twice with PBA, followed by staining with anti-mouse IgA and IgG. Samples were recorded on Cytek Aurora and analyzed in FlowJo (Treestar). Antibody binding intensity was normalized to the negative controls. Isotype control, non-stained and no-serum were used as negative controls."}},
  "data": [
    {"substance": "Kazachstania weizmannii [K. weizmannii]", "values": [
      {"measurement": "protection from C. albicans-induced EC damage", "setting": "[1]; co-infection with K. weizmannii and C. albicans", "value": "did not prevent EC damage"},
      {"measurement": "EC damage / viability (LDH release)", "setting": "[1]; single fungus co-culture", "value": "did not affect EC viability"},
      {"measurement": "C. albicans in feces of colonized animals", "setting": "[2]; Kazachstania-supplemented drinking water prior to immunosuppression", "value": "efficiently expelled C. albicans from colonized animals"},
      {"measurement": "weight loss and systemic yeast spread (kidney colonization)", "setting": "[2]; immunosuppressed C. albicans-colonized animals exposed to K. weizmannii", "value": "significantly delayed the weight loss and systemic yeast spread"},
      {"measurement": "durability of protection", "setting": "[2]; prolonged immunosuppressive treatment", "value": "not permanently protected"},
      {"measurement": "anti-fungal serum IgA and IgG titers", "setting": "[3]", "value": "induced robust anti-fungal serum IgA and IgG titers in most animals"}
    ]}
  ]
}
